Results from patent publication US20130029956A1, “NEW METHOD” (ASTRAZENECA AB, priority 1997, published 2013).
Marks after values point to notes of the source that are not given here.

What was measured:
Assay type in all cases: in vivo, human (children six months to eight years)
asthmatic children [1] = test: Phase III study of four dose regimens of budesonide nebulizing suspension and placebo in asthmatic children (Example 2); parameters: Nighttime Asthma Symptom Score: scale not given here; FEV1: unit not given here; conditions: for FEV1 / Evening PEF / Morning PEF / Daytime Asthma Symptom Score / Nighttime Asthma Symptom Score / Number of Days Use of Breakthrough Medication: adjusted mean change from baseline over 12 weeks; for proportion of patients discontinuing due to worsening asthma: placebo 26.3%; for total proportion of patients who were discontinued: placebo 39%
Method: The objectives of the study were to compare the relative efficacy and safety of budesonide in a nebulizing suspension (0.25 mg administered once a day (QD), 0.25 mg administered twice per day (BID), 0.5 mg BID or 1.0 mg QD) in pediatric asthmatic patients aged six months to eight years.
(§1) This was a multicenter, randomized double-blind, placebo-controlled, parallel-group study.
Patients were mild to moderate asthmatic children aged six months to eight years of age with a diagnosis of asthma as defined by the National Institutes of Health of the U.S. Department of Health and Human Services, including:
(a) exacerbations of cough and/or wheezing on a frequent basis, including nocturnal asthma, with infrequent severe exacerbations during the last six months; (b) daily use of at least one chronic asthma medication (which could have been an inhaled GCS) with periodic use of breakthrough medication for at least three months prior to Visit 1; and (c) basal FEV1 of […] of predicted and reversibility of […] at 15±5 minutes after a standard dose of inhaled bronchodilator for patients capable of performing consistent PFTs. […]
Primary efficacy variables were mean changes from baseline in daytime and nighttime asthma symptom scores over the 12-week treatment phase. The symptom scores were obtained as in Example 1.
Secondary efficacy variables were: (a) the number of days breakthrough (bronchodilator) medication was used; (b) spirometry test variables, including FEV1, FEF25-75, and FVC performed at clinic visits in the subset of patients capable of performing spirometry testing; (c) PEF measured daily in the morning and evening in the subset of patients capable of performing PEFs; and (d) proportion of patient discontinuations from the study.
(§2) Safety variables were: (a) reported adverse events that could be due to the drug; (b) morning basal and post-ACTH-simulation effects on plasma cortisol levels (HPA-axis function) in a subset of patients; and (c) changes in physical examinations, vital signs and clinical laboratory tests, including oropharyngeal and nasal fungal cultures.
(§3) Analysis of variance was used to compare differences between treatment groups for all efficacy variables, with the exception of patient discontinuations from the study, which was analyzed using Fisher's exact test. Analysis of variance was also used for morning basal and post-ACTH-simulation effects on plasma cortisol levels. Descriptive statistics were used to present all other safety data.
A total of 471 patients were evaluated for efficacy (all patients treated). Data are expressed as the adjusted mean change from baseline over the 12-week treatment phase, all patients treated, last value carried forward (*p≦0.050; **p≦0.010 and ***p≦0.001, versus placebo; “n” is the number of patients).

[2] = tested on: plasma cortisol levels (HPA-axis function); test: Basal and post-ACTH-stimulated plasma cortisol levels, Example 2; conditions: 0.25 mg QD, 0.25 mg BID, 0.5 mg BID, 1.0 mg QD; baseline to week 12 versus placebo
From the text: as §2, §3

asthmatic children [3] = test: Phase III study of three dose levels of once-a-day budesonide nebulizing suspension and placebo in asthmatic children (Example 1); conditions: for Asthma scores: Daytime / Asthma scores: Nighttime: 0-3 score; for proportion of patients discontinuing due to worsening asthma: placebo 23%; for total proportion of patients who were discontinued: placebo 28%
Method: The objectives of the study were to compare the relative efficacy and safety of a nebulizing suspension of budesonide (containing 0.25 mg, 0.5 mg, or 1.0 mg of budesonide per dose), administered once a day, in pediatric asthmatic patients aged six months to eight years.
as §1
Patients were asthmatic children who had not been treated with steroids in the 30 days prior to initiation of the study treatment.
Budesonide was administered once per day as a nebulized suspension, at 0.25 mg, 0.5 mg, or 1.0 mg per administration, via a Pari LC-Jet Plus® nebulizer connected to a Pari Master® compressor (Pari Respiratory Equipment, Inc., Richmond, Va.) with a face mask or a mouth piece. The placebo was the solvent used for the budesonide suspension (0.1 mg disodium edetate, 8.5 mg NaCl, 0.2 mg polysorbate, 0.28 mg anhydrous citric acid, and 0.5 mg sodium citrate per 1 ml water) but without budesonide.
Primary efficacy variables were mean changes from baseline in daytime and nighttime asthma symptom scores over the 12 week treatment phase. The symptom scores are based on the subjective evaluation by the patients or their parents based on a 0-3 rating system in which 0=no symptoms, 1=mild symptoms, 2=moderate symptoms, and 3=severe symptoms.
Secondary efficacy variables were: (a) patient outcomes, including the proportion of patients who were discontinued from the study for any reason and the proportion of patients who were discontinued from this study due to worsening asthma; (b) the number of days breakthrough (bronchodilator) medication was used; (c) spirometry test variables, including FEV1, FEF25-75 (forced expiratory flow during the middle half of the forced vital capacity in liters per second) and FVC (forced vital capacity in liters), performed at clinic visits in the subset of patients capable of performing spirometry testing; (d) PEF (peak expiratory flow in liters per minute) measured daily in the morning and evening in the subset of patients capable of performing PEF testing; (e) changes in health status measurements, including the Modified Functional Status II Scale Child Health Status Scale and the RAND General Health Index; and (f) differences in asthma-related health care utilization and indirect health care costs.
as §2, with “effects” for “events”, “function);” for “function) in a subset of patients;”, “signs,” for “signs”
as §3, with “patient outcomes,” for “patient discontinuations from the study,”, “which were” for “which was”
Results of nighttime and daytime asthma symptom scores, and the number of days of use of breakthrough medication are presented in Table 1. Data are expressed as the adjusted mean change from baseline over the 12-week treatment phase, all patients treated, last value carried forward (*p≦0.050, **p≦0.010, and ***p≦0.001 versus placebo (PBO); “n” is number of patients). Thus improvements are indicated by negative values of these variables.

[4] = tested on: plasma cortisol levels (HPA-axis function); test: Basal and post-ACTH-stimulated plasma cortisol levels, Example 1; conditions: 0.25, 0.5, 1.0 mg once a day; baseline to week 12 versus placebo
Method: as §2, with “effects” for “events”, “function);” for “function) in a subset of patients;”, “signs,” for “signs”
as §3, with “patient outcomes,” for “patient discontinuations from the study,”, “which were” for “which was”
[…] is stimulated by injection (intravenous for young children and intramuscular for infants) of corticotropin one hour before morning blood sampling.

[5] = 0.25 mg BID, n = 34, no unit in table
[6] = 0.5 mg BID, n = 29, no unit in table
[7] = 1.0 mg QD, n = 34, no unit in table
[8] = 0.25 mg once a day nebulized, adjusted mean change from baseline over 12 weeks, n = 91
[9] = 0.5 mg once a day nebulized, adjusted mean change from baseline over 12 weeks, n = 82
[10] = 1.0 mg once a day nebulized, adjusted mean change from baseline over 12 weeks, n = 93

## CCCC1O[C@@H]2C[C@H]3[C@@H]4CCC5=CC(=O)C=C[C@]5(C)[C@H]4[C@@H](O)C[C@]3(C)[C@]2(C(=O)CO)O1 (stereo partly drawn) [Budesonide, budesonide]
Asthmatic children [1]; 0.25 mg BID, n = 33, no unit in table
  FEV1: 0.03
Asthmatic children [1]; [5]
  Evening PEF: 19.2* ^
  Morning PEF: 23.0**
Asthmatic children [1]; 0.25 mg BID, n = 97
  Daytime Asthma Symptom Score: −0.40*
  Nighttime Asthma Symptom Score: −0.49***
  Number of Days Use of Breakthrough Medication: −5.22*** days
Asthmatic children [1]; 0.25 mg BID, p=0.029
  proportion of patients discontinuing due to worsening asthma: 13.1%
Asthmatic children [1]; 0.25 mg BID
  total proportion of patients who were discontinued: 21%
Asthmatic children [1]; 0.25 mg QD, n = 31, no unit in table
  FEV1: 0.07
Asthmatic children [1]; 0.25 mg QD, n = 32, no unit in table
  Evening PEF: 16.8*
Asthmatic children [1]; 0.25 mg QD, n = 32, no unit in table (baseline PEF in L/min)
  Morning PEF: 10.9
Asthmatic children [1]; 0.25 mg QD, n = 92
  Daytime Asthma Symptom Score: −0.28
Asthmatic children [1]; 0.25 mg QD, n = 93
  Nighttime Asthma Symptom Score: −0.28
  Number of Days Use of Breakthrough Medication: −4.39* days
Asthmatic children [1]; 0.25 mg QD
  proportion of patients discontinuing due to worsening asthma: 16.0%
  total proportion of patients who were discontinued: 21%
Asthmatic children [1]; [6]
  Evening PEF: 21.0**
  FEV1: 0.17*
  Morning PEF: 24.8**
Asthmatic children [1]; 0.5 mg BID, n = 96
  Daytime Asthma Symptom Score: −0.46**
  Nighttime Asthma Symptom Score: −0.42**
  Number of Days Use of Breakthrough Medication: −4.92** days
Asthmatic children [1]; 0.5 mg BID
  proportion of patients discontinuing due to worsening asthma: 15.3%
  total proportion of patients who were discontinued: 19%
Asthmatic children [1]; [7]
  Evening PEF: 14.1
  FEV1: 0.11
  Morning PEF: 17.1*
Asthmatic children [1]; 1.0 mg QD, n = 93
  Daytime Asthma Symptom Score: −0.37*
  Nighttime Asthma Symptom Score: −0.40**
  Number of Days Use of Breakthrough Medication: −4.38* days
Asthmatic children [1]; 1.0 mg QD
  proportion of patients discontinuing due to worsening asthma: 21.1%
  total proportion of patients who were discontinued: 31%
Asthmatic children [1]; four regimens, 12 weeks
  number of patients with clinically significant changes in nasal or oral fungal cultures between treatment groups: no apparent differences
Asthmatic children [1]; in vivo
  type, incidence or severity of adverse events compared to placebo: no clinically relevant differences
  vital signs or physical examination outcomes between treatment groups: no clinically relevant differences
[2]
  HPA-axis suppression (basal and post-ACTH-stimulated plasma cortisol): no evidence of HPA-axis suppression
Asthmatic children [3]; [8]
  Asthma scores: Daytime: −0.57**
  Asthma scores: Nighttime: −0.49***
Asthmatic children [3]; 0.25 mg once a day, adjusted mean change from baseline over 12 weeks, n = 29
  FEV1: -0.01 L
Asthmatic children [3]; 0.25 mg once a day, adjusted mean change from baseline over 12 weeks, n = 44
  Morning PEF: 14.4 L/min
Asthmatic children [3]; 0.25 mg once a day, adjusted mean change from baseline over 12 weeks, n = 91
  Days of use of bronchodilator: −6.26* days
Asthmatic children [3]; 0.25 mg once a day
  proportion of patients discontinuing due to worsening asthma: 14%
  total proportion of patients who were discontinued: 19%
Asthmatic children [3]; [9]
  Asthma scores: Daytime: −0.46*
  Asthma scores: Nighttime: −0.42**
Asthmatic children [3]; 0.5 mg once a day, adjusted mean change from baseline over 12 weeks, n = 28
  FEV1(L): 0.03* L
Asthmatic children [3]; 0.5 mg once a day, adjusted mean change from baseline over 12 weeks, n = 41
  Morning PEF: 6.5 L/min
Asthmatic children [3]; 0.5 mg once a day, adjusted mean change from baseline over 12 weeks, n = 82
  Days of use of bronchodilator: −5.31* days
Asthmatic children [3]; 0.5 mg once a day
  proportion of patients discontinuing due to worsening asthma: 17%
  total proportion of patients who were discontinued: 24%
Asthmatic children [3]; [10]
  Asthma scores: Daytime: −0.50*
  Asthma scores: Nighttime: −0.42**
Asthmatic children [3]; 1.0 mg once a day, adjusted mean change from baseline over 12 weeks, n = 33
  FEV1(L): 0.03* L
Asthmatic children [3]; 1.0 mg once a day, adjusted mean change from baseline over 12 weeks, n = 55
  Morning PEF: 10.9 L/min
Asthmatic children [3]; 1.0 mg once a day, adjusted mean change from baseline over 12 weeks, n = 93
  Days of use of bronchodilator: −5.98* days
Asthmatic children [3]; 1.0 mg once a day
  proportion of patients discontinuing due to worsening asthma: 13%
Asthmatic children [3]; 1.0 mg once a day, p=0.020
  total proportion of patients who were discontinued: 14%
Asthmatic children [3]; in vivo
  vital signs or physical examination differences between treatment groups: no clinically relevant differences
Asthmatic children [3]; three doses once a day, 12 weeks
  clinically significant changes in nasal or oral fungal cultures between treatment groups: no clinically relevant differences
[4]
  HPA-axis suppression (basal and post-ACTH-stimulated plasma cortisol): no evidence of HPA-axis suppression
